# Target: T1, FeCH (ferrochelatase) (Cereibacter sphaeroides, UniProt Q3IYK5, Y58H)
# T1 construct: gene HemH; His-tagged, pET14b, E. coli Rosetta pLysS
# Assay: spectrophotometric ferrochelatase assay (DIX consumption at […] nm, isosbestic reference […] nm)
# Type: biochemical
# Details: 1 µM FeCH, 30 µM DIX, 100 µM CoCl2, 25 mM Tris pH 7.4, 0.15% Tween 80; active, substantially lower than wild type
# T1 sequence (Q3IYK5 entry or part of it Y58H): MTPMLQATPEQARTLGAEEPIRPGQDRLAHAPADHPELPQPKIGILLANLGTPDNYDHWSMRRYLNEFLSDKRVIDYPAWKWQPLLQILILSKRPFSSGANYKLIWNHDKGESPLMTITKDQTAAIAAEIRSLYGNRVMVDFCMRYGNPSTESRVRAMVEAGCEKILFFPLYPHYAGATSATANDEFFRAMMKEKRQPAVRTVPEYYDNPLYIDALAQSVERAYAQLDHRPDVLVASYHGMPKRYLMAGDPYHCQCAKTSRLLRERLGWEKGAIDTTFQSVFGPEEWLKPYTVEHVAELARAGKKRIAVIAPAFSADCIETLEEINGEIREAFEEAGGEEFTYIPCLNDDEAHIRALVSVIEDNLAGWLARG
smiles,measurement,value
CC1=C(CCC(=O)O)c2cc3nc(cc4[nH]c(cc4C)cc4[nH]c(cc1n2)cc4C)C(C)=C3CCC(=O)O [deuteroporphyrin IX],"spectrophotometric ferrochelatase assay (DIX consumption at 496 nm, isosbestic r)",the ΔpufQ PSvar version of the FeCH protein is active
